Our source for the activity, specific activity and Km values is paper PMC9044951, “Bioinformatic Mining and Structure-Activity Profiling of Baeyer-Villiger Monooxygenases from Mycobacterium tuberculosis” (mSphere, 2022).

For data set [1], the target named is EthA (Rv3854c) (Mycobacterium tuberculosis, UniProt P9WNF9). The format is biochemical.
Data set [2] has as its target Rv0892 (Mycobacterium tuberculosis, UniProt P9WNG1).
The target of data set [3] is Rv0565c (Mycobacterium tuberculosis, UniProt O53762).
In data set [4] the test system is CCCCCCC(C)=O. Nature of the data set: purified protein. To be noted: pH 7.5; 25.0 °C.
For data set [5], the system named is CCCC(=O)CC(=O)OCC. Nature of the data set: purified protein. As to conditions: pH 7.5; 25.0 °C.

Sequence of Rv0892 (P9WNG1 whole entry, looked up): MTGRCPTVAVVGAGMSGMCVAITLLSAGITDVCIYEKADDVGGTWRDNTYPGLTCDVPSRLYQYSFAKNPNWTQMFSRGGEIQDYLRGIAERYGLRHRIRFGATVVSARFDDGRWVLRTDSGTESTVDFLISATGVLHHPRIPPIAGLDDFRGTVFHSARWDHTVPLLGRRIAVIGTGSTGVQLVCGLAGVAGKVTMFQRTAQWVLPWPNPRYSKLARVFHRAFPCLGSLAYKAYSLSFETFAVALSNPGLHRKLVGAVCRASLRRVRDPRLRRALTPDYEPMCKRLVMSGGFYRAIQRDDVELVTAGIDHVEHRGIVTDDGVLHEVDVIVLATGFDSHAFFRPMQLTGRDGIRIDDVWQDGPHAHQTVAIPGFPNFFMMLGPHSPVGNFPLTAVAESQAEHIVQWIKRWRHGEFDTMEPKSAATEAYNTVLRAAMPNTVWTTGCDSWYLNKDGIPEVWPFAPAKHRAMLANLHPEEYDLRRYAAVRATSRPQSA
Sequence of Rv0565c (O53762 entry or part of it): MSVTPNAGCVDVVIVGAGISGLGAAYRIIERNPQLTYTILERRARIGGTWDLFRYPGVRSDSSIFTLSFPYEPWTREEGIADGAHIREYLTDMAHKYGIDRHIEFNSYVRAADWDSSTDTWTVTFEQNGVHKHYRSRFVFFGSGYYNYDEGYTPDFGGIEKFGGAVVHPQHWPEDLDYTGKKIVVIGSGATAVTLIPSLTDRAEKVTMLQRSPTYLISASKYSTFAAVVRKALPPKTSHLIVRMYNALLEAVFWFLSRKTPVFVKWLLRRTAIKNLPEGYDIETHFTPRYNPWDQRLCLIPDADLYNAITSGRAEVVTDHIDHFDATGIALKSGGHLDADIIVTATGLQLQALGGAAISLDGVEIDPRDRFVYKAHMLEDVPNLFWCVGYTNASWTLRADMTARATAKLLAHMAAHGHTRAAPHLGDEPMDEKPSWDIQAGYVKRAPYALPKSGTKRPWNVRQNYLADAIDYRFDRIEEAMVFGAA
Sequence of EthA (Rv3854c) (P9WNF9 whole entry, looked up): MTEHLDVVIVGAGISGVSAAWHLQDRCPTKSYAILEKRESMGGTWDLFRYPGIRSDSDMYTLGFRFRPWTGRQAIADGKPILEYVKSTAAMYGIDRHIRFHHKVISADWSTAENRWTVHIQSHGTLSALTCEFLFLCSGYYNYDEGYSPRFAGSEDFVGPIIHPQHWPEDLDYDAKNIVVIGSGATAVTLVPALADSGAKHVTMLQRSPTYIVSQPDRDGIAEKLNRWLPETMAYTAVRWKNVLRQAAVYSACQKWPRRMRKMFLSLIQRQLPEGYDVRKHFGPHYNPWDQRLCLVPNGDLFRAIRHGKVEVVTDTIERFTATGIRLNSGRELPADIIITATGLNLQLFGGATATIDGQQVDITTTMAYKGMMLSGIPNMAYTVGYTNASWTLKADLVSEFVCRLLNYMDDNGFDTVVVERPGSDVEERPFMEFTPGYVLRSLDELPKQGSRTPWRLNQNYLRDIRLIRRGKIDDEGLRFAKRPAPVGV

Consider `CCCCCCC(C)=O` [2-octanone], for which the activity result in data set [1] was “Rv0565c and EthA are efficient in oxidizing 2-octanone”; in data set [3], “Rv0565c and EthA are efficient in oxidizing 2-octanone”. The specific activity entry in data set [2] is recorded as “Rv0892 exhibits markedly low catalytic rates on the tested substrates”.
On to `CCCC(=O)CC(=O)OCC` [ethyl 3-oxohexanoate], for which the activity result in data set [1] was “with 2-oct and Et3-ox being the most effective substrates”; in data set [3] it was “with 2-oct and Et3-ox being the most effective substrates”. Also, in data set [2], the specific activity entry is recorded as “Rv0892 exhibits markedly low catalytic rates on the tested substrates”.
As usually defined, the Km is the concentration of substrate that gives half-maximal velocity. As for “MymA (Rv3083), MymAcoli (Mycobacterium tuberculosis H37Rv)”, the Michaelis-Menten constant (Km) turned out to be 400 ± 100 µM in data set [4] and 240 ± 40 µM in data set [5].
